Assay results reported in ChEMBL document CHEMBL6127140, “Bicyclic Ureas as JAK2 Inhibitors for Treating Hematological Cancer” (ACS Med Chem Lett, 2024).

Experiment: Binding affinity to C-terminal his-Avi-tagged human JAK2 JH-2 domain (536 to 812 residues) W659A/W777A/F794H mutant expressed in baculovirus expression system incubated for 1 hr in presence of JAK2 JH2 tracer and ATP by Lanthascreen assay

Row | Compound | IC50
1 | COC(=O)N[C@@H]1CC[C@@H](n2c(=O)n(C)c3cnc(Nc4cccc(-c5ccc6c(c5)OCCO6)n4)cc32)C1 | ≤ 10 nM
2 | COC(=O)N[C@@H]1CC[C@@H](n2c(=O)n(C)c3cnc(Nc4ccc(F)c(-c5ccc(C6CC6)cc5)n4)cc32)C1 | ≤ 10 nM
3 | COC(=O)N[C@@H]1CC[C@@H](n2c(=O)n(C)c3cnc(Nc4cccc(-c5ccc(OC)nc5)n4)cc32)C1 | ≤ 10 nM
4 | COC(=O)N[C@@H]1CC[C@@H](n2c(=O)n(C)c3cnc(Nc4cc(C)nc(N5CCC(F)(F)C5)n4)cc32)C1 | ≤ 10 nM
5 | COC(=O)N[C@@H]1CC[C@@H](n2c(=O)n(C)c3cnc(Nc4ccnc(N5CCCCC5)n4)cc32)C1 | ≤ 10 nM
6 | COC(=O)N[C@@H]1CC[C@@H](n2c(=O)n(C)c3cnc(Nc4cccc(-c5ccc6[nH]nc(C)c6c5)n4)cc32)C1 | ≤ 10 nM
